Reference: ChEMBL document CHEMBL4364283 (J Med Chem, 2019)
Activity calls are given as the source filed them. The calls are words filed in the database; no cut-off is given here.

Tests used:
[1] = molecular target: T1, Menin (Homo sapiens, UniProt O00255); assay: Inhibition of FAM-probe binding to Menin (unknown origin) after 60 mins by fluorescence polarization competitive binding assay
T1 sequence (O00255 whole entry): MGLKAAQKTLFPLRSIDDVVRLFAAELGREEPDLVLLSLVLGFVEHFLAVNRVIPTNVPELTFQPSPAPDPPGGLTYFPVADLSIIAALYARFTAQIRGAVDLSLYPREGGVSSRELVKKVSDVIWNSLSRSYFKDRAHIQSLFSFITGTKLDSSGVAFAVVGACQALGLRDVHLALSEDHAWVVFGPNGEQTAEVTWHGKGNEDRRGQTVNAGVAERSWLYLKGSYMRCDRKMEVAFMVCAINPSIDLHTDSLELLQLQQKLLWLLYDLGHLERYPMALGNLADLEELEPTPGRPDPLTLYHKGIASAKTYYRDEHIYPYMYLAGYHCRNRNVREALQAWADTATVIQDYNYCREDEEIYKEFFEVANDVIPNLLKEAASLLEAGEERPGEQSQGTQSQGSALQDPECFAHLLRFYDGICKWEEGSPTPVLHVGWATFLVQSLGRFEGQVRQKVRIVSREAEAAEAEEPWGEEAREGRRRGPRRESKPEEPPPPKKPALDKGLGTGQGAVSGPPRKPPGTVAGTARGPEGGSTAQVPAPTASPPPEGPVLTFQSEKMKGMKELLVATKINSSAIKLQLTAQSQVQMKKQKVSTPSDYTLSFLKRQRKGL

[2] = test system: MV4-11; assay: cells; settings: Homo sapiens, MV4-11, 96 h
[3] = test system: MV4-11; assay: Induction of differentiation in human MV4-11 cells assessed as increase in CD11b positive cells at 0.03 to 3 uM after 24 hrs by phycoerythrin staining-based flow cytometric analysis; format: functional, cell-based
[4] = test system: MV4-11; assay: Induction of differentiation in human MV4-11 cells assessed as increase in CD11b positive cells after 48 hrs by phycoerythrin staining-based flow cytometric analysis; format: functional, cell-based
[5] = test system: Mus musculus; assay: Downregulation of Hoxa9 expression in tumors of mouse xenografted with human MV411 cells at 50 mg/kg , ip administered daily for 3 days and measured after 6 to 48 hrs by RT-qPCR analysis; format: functional, organism-based
[6] = test system: Mus musculus; assay: Downregulation of MEIS1 expression in tumors of mouse xenografted with human MV411 cells at 50 mg/kg , ip administered daily for 3 days and measured after 6 to 48 hrs by RT-qPCR analysis; format: functional, organism-based
[7] = molecular target: T1, Menin
[8] = molecular target: T2, Menin/Histone-lysine N-methyltransferase MLL (Homo sapiens) (UniProt O00255+Q03164); settings: 30 to 300 nM
[9] = molecular target: T2, Menin/Histone-lysine N-methyltransferase MLL (Homo sapiens); settings: 100 nM
[10] = molecular target: T2, Menin/Histone-lysine N-methyltransferase MLL (Homo sapiens); settings: 30 to 300 nM; remark: listed apart in the source
[11] = molecular target: T2, Menin/Histone-lysine N-methyltransferase MLL (Homo sapiens); settings: 100 nM; remark: listed apart in the source
[12] = molecular target: T1, Menin; assay: Binding affinity to human Menin expressed in Escherichia coli Rosetta2 (DE3) cells by isothermal titration calorimetry
[13] = Solubility of the compound; format: physicochemical
[14] = test system: MOLM-13; assay: Growth inhibition of human MOLM13 cells after 4 days by WST-8 assay; format: functional, cell-based; settings: MOLM-13, 96 h
[15] = test system: HL-60; assay: Growth inhibition of human HL60 cells after 4 days by WST-8 assay; format: functional, cell-based; settings: HL-60, 96 h
[16] = molecular target: Menin (Homo sapiens, UniProt O00255); assay: Inhibition of fluorescent probe binding to Menin (2 to 610 residues containing deletion from 460-519) (unknown origin) after 60 mins by fluorescence polarization competitive binding assay

T2 sequence (Q03164 1-2718 partner limits assumed, one chain of several): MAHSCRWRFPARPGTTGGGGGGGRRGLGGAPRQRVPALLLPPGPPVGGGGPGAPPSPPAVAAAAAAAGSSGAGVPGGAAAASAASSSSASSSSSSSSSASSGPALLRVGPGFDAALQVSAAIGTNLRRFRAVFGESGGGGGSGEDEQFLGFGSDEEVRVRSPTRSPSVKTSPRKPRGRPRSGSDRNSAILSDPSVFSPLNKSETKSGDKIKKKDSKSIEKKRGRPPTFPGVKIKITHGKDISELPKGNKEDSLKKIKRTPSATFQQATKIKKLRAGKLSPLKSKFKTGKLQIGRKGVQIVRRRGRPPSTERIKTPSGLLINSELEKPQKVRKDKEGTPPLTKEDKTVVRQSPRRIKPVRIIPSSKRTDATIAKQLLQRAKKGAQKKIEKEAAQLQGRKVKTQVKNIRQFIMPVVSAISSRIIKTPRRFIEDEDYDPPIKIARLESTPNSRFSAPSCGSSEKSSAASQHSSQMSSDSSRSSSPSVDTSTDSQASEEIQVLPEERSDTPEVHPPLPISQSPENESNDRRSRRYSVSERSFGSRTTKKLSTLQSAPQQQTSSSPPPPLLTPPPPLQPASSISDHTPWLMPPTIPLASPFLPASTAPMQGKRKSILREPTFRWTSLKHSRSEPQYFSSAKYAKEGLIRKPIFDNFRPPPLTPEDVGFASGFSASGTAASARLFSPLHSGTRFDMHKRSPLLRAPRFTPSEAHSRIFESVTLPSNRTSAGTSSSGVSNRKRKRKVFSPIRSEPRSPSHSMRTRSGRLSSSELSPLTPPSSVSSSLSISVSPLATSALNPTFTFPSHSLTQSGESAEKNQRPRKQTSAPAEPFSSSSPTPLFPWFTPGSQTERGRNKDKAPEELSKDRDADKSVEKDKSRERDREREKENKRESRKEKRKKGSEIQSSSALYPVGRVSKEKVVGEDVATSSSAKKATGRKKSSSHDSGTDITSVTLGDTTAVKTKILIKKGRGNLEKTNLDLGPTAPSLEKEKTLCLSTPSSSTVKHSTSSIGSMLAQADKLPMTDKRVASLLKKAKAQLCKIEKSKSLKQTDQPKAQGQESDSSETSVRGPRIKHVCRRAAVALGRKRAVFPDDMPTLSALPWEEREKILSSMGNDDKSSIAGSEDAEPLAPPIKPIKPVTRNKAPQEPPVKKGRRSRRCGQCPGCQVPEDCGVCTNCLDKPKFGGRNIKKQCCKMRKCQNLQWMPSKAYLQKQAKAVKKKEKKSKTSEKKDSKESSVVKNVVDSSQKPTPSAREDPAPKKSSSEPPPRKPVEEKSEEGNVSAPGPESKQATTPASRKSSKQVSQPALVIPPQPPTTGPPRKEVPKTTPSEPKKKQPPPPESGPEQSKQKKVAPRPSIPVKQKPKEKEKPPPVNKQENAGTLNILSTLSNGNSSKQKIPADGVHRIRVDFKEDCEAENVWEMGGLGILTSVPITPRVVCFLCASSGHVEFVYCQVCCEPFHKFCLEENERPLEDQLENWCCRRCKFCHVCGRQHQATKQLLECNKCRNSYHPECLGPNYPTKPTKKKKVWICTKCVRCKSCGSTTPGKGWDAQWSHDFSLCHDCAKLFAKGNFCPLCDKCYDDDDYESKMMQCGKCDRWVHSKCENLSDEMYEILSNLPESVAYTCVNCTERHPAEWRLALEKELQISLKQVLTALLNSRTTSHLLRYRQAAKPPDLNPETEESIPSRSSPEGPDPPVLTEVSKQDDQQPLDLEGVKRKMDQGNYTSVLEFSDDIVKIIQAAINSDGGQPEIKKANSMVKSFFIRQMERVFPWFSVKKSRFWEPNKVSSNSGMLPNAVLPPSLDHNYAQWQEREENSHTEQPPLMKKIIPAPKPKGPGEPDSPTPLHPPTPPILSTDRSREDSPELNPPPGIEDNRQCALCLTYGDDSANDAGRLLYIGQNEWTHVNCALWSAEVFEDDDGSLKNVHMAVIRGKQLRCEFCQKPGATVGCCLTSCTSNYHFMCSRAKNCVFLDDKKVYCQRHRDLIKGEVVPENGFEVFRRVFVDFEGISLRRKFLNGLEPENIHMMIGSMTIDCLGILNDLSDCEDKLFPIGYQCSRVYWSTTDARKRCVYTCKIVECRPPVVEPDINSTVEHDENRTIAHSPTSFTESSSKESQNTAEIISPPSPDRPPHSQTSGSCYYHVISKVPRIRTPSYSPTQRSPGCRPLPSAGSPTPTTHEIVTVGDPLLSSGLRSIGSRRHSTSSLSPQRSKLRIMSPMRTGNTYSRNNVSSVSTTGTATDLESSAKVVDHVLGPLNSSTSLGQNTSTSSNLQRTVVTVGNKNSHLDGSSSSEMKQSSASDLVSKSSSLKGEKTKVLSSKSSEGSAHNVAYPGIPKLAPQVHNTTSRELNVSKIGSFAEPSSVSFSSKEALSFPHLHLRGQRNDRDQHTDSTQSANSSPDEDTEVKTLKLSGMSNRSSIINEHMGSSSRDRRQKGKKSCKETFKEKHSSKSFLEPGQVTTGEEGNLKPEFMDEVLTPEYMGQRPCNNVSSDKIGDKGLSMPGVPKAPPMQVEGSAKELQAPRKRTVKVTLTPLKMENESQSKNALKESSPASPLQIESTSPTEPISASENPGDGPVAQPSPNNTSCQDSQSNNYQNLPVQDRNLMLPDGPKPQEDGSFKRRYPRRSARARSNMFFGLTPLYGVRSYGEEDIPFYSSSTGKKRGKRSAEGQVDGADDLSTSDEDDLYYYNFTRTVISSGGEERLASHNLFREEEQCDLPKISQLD
T2 sequence (Q03164 2719-3969 partner limits assumed, one chain of several): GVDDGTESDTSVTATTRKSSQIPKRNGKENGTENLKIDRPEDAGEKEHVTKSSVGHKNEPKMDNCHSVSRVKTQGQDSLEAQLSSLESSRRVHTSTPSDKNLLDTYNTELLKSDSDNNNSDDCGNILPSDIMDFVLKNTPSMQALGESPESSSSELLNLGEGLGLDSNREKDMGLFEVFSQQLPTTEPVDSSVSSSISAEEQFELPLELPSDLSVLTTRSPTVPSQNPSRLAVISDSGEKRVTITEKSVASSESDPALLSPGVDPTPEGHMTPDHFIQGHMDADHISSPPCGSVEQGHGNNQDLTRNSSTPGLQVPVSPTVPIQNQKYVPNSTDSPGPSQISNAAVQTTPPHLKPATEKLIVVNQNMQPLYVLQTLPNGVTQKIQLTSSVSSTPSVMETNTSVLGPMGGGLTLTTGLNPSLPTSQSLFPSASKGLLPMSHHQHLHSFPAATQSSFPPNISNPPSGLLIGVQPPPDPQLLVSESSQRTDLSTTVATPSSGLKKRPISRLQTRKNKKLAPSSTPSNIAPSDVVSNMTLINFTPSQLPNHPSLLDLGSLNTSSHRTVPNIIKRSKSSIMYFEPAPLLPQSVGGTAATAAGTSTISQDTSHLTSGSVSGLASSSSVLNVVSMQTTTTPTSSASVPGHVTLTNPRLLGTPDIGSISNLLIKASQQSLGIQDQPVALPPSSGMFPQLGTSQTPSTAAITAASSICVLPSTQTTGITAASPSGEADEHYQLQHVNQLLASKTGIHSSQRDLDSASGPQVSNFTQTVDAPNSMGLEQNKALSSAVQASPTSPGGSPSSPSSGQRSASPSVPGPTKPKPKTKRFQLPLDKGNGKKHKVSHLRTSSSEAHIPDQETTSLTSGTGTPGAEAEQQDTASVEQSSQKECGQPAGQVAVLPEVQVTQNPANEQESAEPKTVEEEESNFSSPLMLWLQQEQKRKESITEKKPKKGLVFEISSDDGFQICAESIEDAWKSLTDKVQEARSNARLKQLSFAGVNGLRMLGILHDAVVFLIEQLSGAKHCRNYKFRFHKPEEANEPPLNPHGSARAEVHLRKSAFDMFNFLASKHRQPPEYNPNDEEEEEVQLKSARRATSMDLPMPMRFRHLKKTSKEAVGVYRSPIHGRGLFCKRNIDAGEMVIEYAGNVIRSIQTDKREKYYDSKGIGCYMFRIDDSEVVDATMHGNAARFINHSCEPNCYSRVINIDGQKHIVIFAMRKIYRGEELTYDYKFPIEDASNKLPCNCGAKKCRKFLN

SMILES: O=S(=O)(c1ccncc1)c1ccc(N2CC(CN3CCC(C4(C5CCCC5)CN(CC5COC5)Cc5ccccc54)CC3)C2)cc1 (configuration not stated)
- Ki [1]: 7 nM
- IC50 [2]: 1570 nM

SMILES: CCN1Cc2ccccc2C(C2CCCC2)(C2CCN(CC3CN(c4ccc(S(=O)(=O)c5ccncc5)cc4)C3)CC2)C1 (configuration not stated)
- Ki [1]: 1 nM
- IC50 [2]: 840 nM

SMILES: CC(=O)N[C@H]1CCC[C@@H]1[C@](C#N)(c1ccccc1)C1CCN(CC2CN(c3ccc(C#N)cc3)C2)CC1 (racemic)
- IC50 [1]: 102 nM
- Ki [1]: 32 nM
- IC50 [2]: 3900 nM

SMILES: N#Cc1ccc(OCCCCN2CCC(C3(C4CCCC4)NCCc4ccccc43)CC2)cc1 (configuration not stated)
- IC50 [1]: 5000 nM
- Ki [1]: 1300 nM
- IC50 [2]: 500 nM

SMILES: O=S(=O)(c1ccncc1)c1ccc(N2CC(CN3CCC(C4(C5CCCC5)CN(CCN5CCOCC5)Cc5ccccc54)CC3)C2)cc1 (configuration not stated)
- Ki [1]: 2.7 nM
- IC50 [2]: 1550 nM

SMILES: O=S(=O)(c1ccc(N2CC(CN3CCC(C4(C5CCCC5)NCCc5ccccc54)CC3)C2)cc1)C1CCCCC1 (configuration not stated)
- IC50 [1]: 10 nM
- Ki [1]: 2.4 nM
- IC50 [2]: 1100 nM

SMILES: CNC(=O)O[C@H]1CCC[C@@H]1[C@]1(C2CCN(CC3CN(c4ccc(S(=O)(=O)c5ccncc5)cc4)C3)CC2)CN(C)Cc2ccccc21 (mixture of isomers)
- IC50 [1]: 5 nM
- Ki [1]: < 1 nM
- Activity [3]: Active
- Activity [4]: Dose-dependent effect
- Activity [5]: Active
- Activity [6]: Active
- Kd [7]: 1.4 nM
- inhibition [8]: Active
- inhibition [9]: Active
- inhibition [10]: Active
- inhibition [11]: Active

SMILES: CC(=O)O[C@H]1CCC[C@@H]1[C@](C#N)(c1ccccc1)C1CCN(CC2CN(c3ccc(C#N)cc3)C2)CC1 (mixture of isomers)
- IC50 [1]: 40 nM
- Ki [1]: 12 nM
- IC50 [2]: 1700 nM

SMILES: CC(C)N1Cc2ccccc2C(C2CCCC2)(C2CCN(CC3CN(c4ccc(S(=O)(=O)c5ccncc5)cc4)C3)CC2)C1 (configuration not stated)
- Ki [1]: 1.4 nM
- IC50 [2]: 910 nM

SMILES: O=S(=O)(c1ccncc1)c1ccc(N2CC(CN3CCC(C4(C5CCCC5)CNCc5ccccc54)CC3)C2)cc1 (configuration not stated)
- Ki [1]: 1.7 nM
- IC50 [2]: 980 nM

SMILES: CC(=O)O[C@@H]1CCC[C@H]1[C@](C#N)(c1ccccc1)C1CCN(CC2CN(c3ccc(C#N)cc3)C2)CC1 (relative stereo)
- IC50 [2]: 14300 nM

SMILES: CNC(=O)O[C@H]1CCC[C@@H]1[C@](C#N)(c1ccccc1)C1CCN(CC2CN(c3ccc(C#N)cc3)C2)CC1 (mixture of isomers)
- IC50 [1]: 11 nM
- Ki [1]: 2.7 nM
- IC50 [2]: 300 nM

SMILES: O=S(=O)(c1ccccc1)c1ccc(N2CC(CN3CCC(C4(C5CCCC5)NCCc5ccccc54)CC3)C2)cc1 (configuration not stated)
- IC50 [1]: 20 nM
- Ki [1]: 5.6 nM
- IC50 [2]: 500 nM

SMILES: CS(=O)(=O)c1ccc(N2CC(CN3CCC(C4(C5CCCC5)NCCc5ccccc54)CC3)C2)cc1 (configuration not stated)
- IC50 [1]: 143 nM
- Ki [1]: 45 nM
- IC50 [2]: 4430 nM

SMILES: O=S(=O)(c1ccc(N2CC(CN3CCC(C4(C5CCCC5)NCCc5ccccc54)CC3)C2)cc1)C1CC1 (configuration not stated)
- Ki [1]: 7 nM
- IC50 [2]: 1200 nM

SMILES: N#Cc1ccc(OCCCN2CCC(C3(C4CCCC4)NCCc4ccccc43)CC2)cc1 (configuration not stated)
- IC50 [2]: 1400 nM

SMILES: N#Cc1cc2cc(CN3CCC(Nc4ncnc5sc(CC(F)(F)F)cc45)CC3)c(O)cc2n1Cc1cn[nH]c1
- Kd [12]: 10 nM

SMILES: Cc1c(CN2CCC(Nc3ncnc4sc(CC(F)(F)F)cc34)CC2)ccc2c1cc(C#N)n2Cc1cn[nH]c1
- Kd [12]: 10 nM

SMILES: O=S(=O)(c1ccncc1)c1ccc(N2CC(CN3CCC(C4(C5CCCC5)CN(C5CCC5)Cc5ccccc54)CC3)C2)cc1 (configuration not stated)
- Ki [1]: 2 nM
- IC50 [2]: 900 nM

SMILES: N#Cc1ccc(OCCN2CCC(C3(C4CCCC4)NCCc4ccccc43)CC2)cc1 (configuration not stated)
- IC50 [1]: 21200 nM
- Ki [1]: 5500 nM
- IC50 [2]: 1800 nM

SMILES: CCO[C@H]1CCC[C@@H]1[C@](C#N)(c1ccccc1)C1CCN(CC2CN(c3ccc(C#N)cc3)C2)CC1 (racemic)
- IC50 [1]: 5400 nM
- Ki [1]: 1700 nM
- IC50 [2]: 4300 nM

SMILES: N#Cc1ccc(N2CC(CN3CCC(C4(C5CCCC5)NCCc5ccccc54)CC3)C2)cc1 (configuration not stated)
- Ki [1]: 11 nM
- IC50 [2]: 1300 nM

SMILES: O=S(=O)(c1ccncc1)c1ccc(N2CC(CN3CCC(C4(C5CCCC5)NCCc5ccccc54)CC3)C2)cc1 (configuration not stated)
- IC50 [1]: 17 nM
- Ki [1]: 4.6 nM
- solubility [13]: Soluble
- IC50 [2]: 1300 nM

SMILES: CN1Cc2ccccc2C(C2CCCC2)(C2CCN(CC3CN(c4ccc(S(=O)(=O)c5ccncc5)cc4)C3)CC2)C1 (configuration not stated)
- IC50 [1]: 11 nM
- IC50 [14]: 4300 nM
- IC50 [15]: 2500 nM

SMILES: CCC(=O)O[C@H]1CCC[C@@H]1[C@](C#N)(c1ccccc1)C1CCN(CC2CN(c3ccc(C#N)cc3)C2)CC1 (mixture of isomers)
- IC50 [1]: 33 nM
- Ki [1]: 9.7 nM
- IC50 [2]: 2200 nM

SMILES: CC(C)S(=O)(=O)c1ccc(N2CC(CN3CCC(C4(C5CCCC5)NCCc5ccccc54)CC3)C2)cc1 (configuration not stated)
- Ki [1]: 21 nM
- IC50 [2]: 1100 nM

SMILES: N#Cc1ccc(N2CC(CN3CCC(C(C#N)(c4ccccc4)C4CCCC4)CC3)C2)cc1 (racemic)
- IC50 [1]: 3000 nM
- Ki [1]: 960 nM
- IC50 [2]: 16900 nM

SMILES: O=S(=O)(c1ccc(N2CC(CN3CCC(C4(C5CCCC5)NCCc5ccccc54)CC3)C2)cc1)C1CCC1 (configuration not stated)
- Ki [1]: 11 nM
- IC50 [2]: 1700 nM

SMILES: COC(=O)N[C@H]1CCC[C@@H]1[C@](C#N)(c1cccc(F)c1)C1CCN(CC2CN(c3ccc(S(=O)(=O)C4CN(C(=O)/C=C/CN(C)C)C4)cc3)C2)CC1
- IC50 [16]: 3 nM

SMILES: N#Cc1ccc(N2CCC(CN3CCC(C4(C5CCCC5)NCCc5ccccc54)CC3)C2)cc1 (configuration not stated)
- IC50 [1]: 88 nM
- Ki [1]: 27 nM
- IC50 [2]: 2400 nM

SMILES: CCCC(=O)O[C@H]1CCC[C@@H]1[C@](C#N)(c1ccccc1)C1CCN(CC2CN(c3ccc(C#N)cc3)C2)CC1 (mixture of isomers)
- IC50 [1]: 1100 nM
- Ki [1]: 350 nM
- IC50 [2]: 10700 nM

SMILES: N#Cc1ccc(N2CCCC(CN3CCC(C4(C5CCCC5)NCCc5ccccc54)CC3)C2)cc1 (configuration not stated)
- IC50 [1]: 6600 nM
- Ki [1]: 2130 nM

SMILES: CCS(=O)(=O)c1ccc(N2CC(CN3CCC(C4(C5CCCC5)NCCc5ccccc54)CC3)C2)cc1 (configuration not stated)
- IC50 [1]: 34 nM
- Ki [1]: 10 nM
- IC50 [2]: 2100 nM

SMILES: N#Cc1ccc(N2CCC(N3CCC(C4(C5CCCC5)NCCc5ccccc54)CC3)CC2)cc1 (configuration not stated)
- IC50 [1]: 650 nM
- Ki [1]: 207 nM
- IC50 [2]: 6330 nM

SMILES: O=S(=O)(c1ccc(N2CC(CN3CCC(C4(C5CCCC5)NCCc5ccccc54)CC3)C2)cc1)C1CCCC1 (configuration not stated)
- IC50 [1]: 17 nM
- Ki [1]: 4.6 nM
- IC50 [2]: 900 nM

SMILES: O=S(=O)(c1ccncc1)c1ccc(N2CC(CN3CCC(C4(C5CCCC5)CN(CC5CC5)Cc5ccccc54)CC3)C2)cc1 (configuration not stated)
- Ki [1]: 1.4 nM
- IC50 [2]: 1370 nM

SMILES: O=S(=O)(c1ccncc1)c1ccc(N2CC(CN3CCC(C4(C5CCCC5)CN(Cc5ccncc5)Cc5ccccc54)CC3)C2)cc1 (configuration not stated)
- Ki [1]: 361 nM
- IC50 [2]: 1330 nM
